From US20240158384A1, “CB2 RECEPTOR AGONISTS” (The Board of Trustees of the Leland Stanford Junior …, priority 2020, published 2024)
“Also recorded” adds a separate entry of the source.

Assays:
[1] = test system: extracellular dopamine (DA) in nucleus accumbens; assay: Microdialysis of nucleus accumbens, extracellular dopamine after AMPH; format: in vivo, mouse; settings: 10 mg/kg i.p., 40 min before AMPH 2 mg/kg i.p.; n=1/group
Protocol: For this study, a probe was implanted into the nucleus accumbens (NAc) (FIG. 11A). Following baseline measurements, mice were dosed with vehicle or Compound 22 (10 mg/kg, i.p) followed 40 min later by a single dose of AMPH (2 mg/kg, i.p.). Samples were collected for 2 hr post-dosing. Extracellular dopamine (DA) levels in the dialysate were quantified by HPLC with electrochemical detection (FIG. 11B). […] Compound 22 modulates both spontaneous and reward-related DA release. To confirm these findings in parallel experiments, GPCR-activation based-DA (GRAB-DA) was used, which is a human D2R-GFP chimera sensor that produces fluorescence changes reliably and with sub-second kinetics in response to extracellular DA concentration changes in behaving animals (Sun et al. Cell 2018; 174(2):481-96.e19). Mice were injected with an adeno-associated virus (AAV) carrying GRAB-DA into the (NAc) (FIG. 11C) and allowed to recover for −2 weeks before fiber photometry experiments were performed. In the first pilot experiment, baseline DA release were recorded for 5 min before mice (n=3) were injected with either Compound 22 or vehicle and then recording was continued for 45 min. The rate of spontaneous DA transients was compared in the pre-injection (0-5 min) vs post-injection (35-50 min) periods; there was a significant time x drug interaction: F(1,4)=11.91, P=0.026.

Male C57Bl6J mice [2] = assay: Spontaneous locomotor activity in activity chamber; format: in vivo, mouse; settings: mice, compound alone i.p., 90 minutes after dosing, vs vehicle
Plasma protein binding = format: in vitro ADME
Protocol: (§1) Detailed characterization data was collected for Compound 22. Primary assays were carried out according to Examples 2 and 3, while other assays were carried out according to standard methods.

human CB2R [3] = target: T1, human CB2R (Homo sapiens, UniProt P34972); assay: cAMP Hunter eXpress GPCR assay, human CB2: inhibition of forskolin-stimulated cAMP in CHO cells; format: cell-based; parameters: host or cells: CHO cells
T1 sequence (P34972 whole entry): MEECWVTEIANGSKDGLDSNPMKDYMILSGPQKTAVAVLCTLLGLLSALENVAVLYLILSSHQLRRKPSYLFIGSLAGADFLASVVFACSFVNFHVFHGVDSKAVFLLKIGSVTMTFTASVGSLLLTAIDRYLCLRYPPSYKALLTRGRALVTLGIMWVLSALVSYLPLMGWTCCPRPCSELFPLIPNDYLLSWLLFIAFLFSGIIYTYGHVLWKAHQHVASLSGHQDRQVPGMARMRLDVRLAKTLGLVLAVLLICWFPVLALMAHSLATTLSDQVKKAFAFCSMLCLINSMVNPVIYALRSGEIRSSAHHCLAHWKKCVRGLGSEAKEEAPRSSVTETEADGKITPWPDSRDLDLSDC
Protocol: (§2) Briefly, cAMP Hunter eXpress Cells were seeded 18-24 h prior to the in a 96-well tissue culture treated assay plate and incubated in 5% CO2 at 37° C. in a humidified incubator. After removal of cell media, agonist compound and forskolin prepared in cell assay buffer was added and incubated at 37° C. The CB1 cAMP assay was stimulated with 20 μM final concentration of forskolin with 40 minutes incubation time. The CB2 cAMP assay was stimulated with 25 μM final concentration of forskolin with 35 minutes incubation time. The assay was stopped by incubation with antibody and working solution for 1 h at room temperature. After over 3 h incubation at room temperature in the dark with enzyme acceptor solution, chemiluminescence was measured on a CLARIOstar plate reader (BMG LABTECH Inc., Cary, NC, USA).

Brain protein binding = format: in vitro ADME; settings: brain tissue
Protocol: as §1

GPR55 = GPR55 (Homo sapiens, UniProt Q9Y2T6); assay: Off-target activity GPR55 (agonist, antagonist, PAM modes); format: cell-based
Chain of GPR55 (Q9Y2T6 whole entry, species assumed): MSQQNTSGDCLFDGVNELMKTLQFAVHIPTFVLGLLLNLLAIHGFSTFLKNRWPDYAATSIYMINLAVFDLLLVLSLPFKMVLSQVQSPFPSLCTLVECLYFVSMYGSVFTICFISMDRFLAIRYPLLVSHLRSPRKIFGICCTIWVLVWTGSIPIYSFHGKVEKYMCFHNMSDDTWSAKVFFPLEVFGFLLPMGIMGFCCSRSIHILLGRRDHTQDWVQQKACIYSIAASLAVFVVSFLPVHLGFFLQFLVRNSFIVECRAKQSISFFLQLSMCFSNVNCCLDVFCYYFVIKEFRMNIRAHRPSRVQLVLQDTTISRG
Protocol: as §1

human CB1R = target: T2, human CB1R (Homo sapiens, UniProt P21554); assay: cAMP Hunter eXpress GPCR assay, human CB1: inhibition of forskolin-stimulated cAMP in CHO cells; format: cell-based
T2 construct: host or cells: CHO cells
T2 sequence (P21554 whole entry): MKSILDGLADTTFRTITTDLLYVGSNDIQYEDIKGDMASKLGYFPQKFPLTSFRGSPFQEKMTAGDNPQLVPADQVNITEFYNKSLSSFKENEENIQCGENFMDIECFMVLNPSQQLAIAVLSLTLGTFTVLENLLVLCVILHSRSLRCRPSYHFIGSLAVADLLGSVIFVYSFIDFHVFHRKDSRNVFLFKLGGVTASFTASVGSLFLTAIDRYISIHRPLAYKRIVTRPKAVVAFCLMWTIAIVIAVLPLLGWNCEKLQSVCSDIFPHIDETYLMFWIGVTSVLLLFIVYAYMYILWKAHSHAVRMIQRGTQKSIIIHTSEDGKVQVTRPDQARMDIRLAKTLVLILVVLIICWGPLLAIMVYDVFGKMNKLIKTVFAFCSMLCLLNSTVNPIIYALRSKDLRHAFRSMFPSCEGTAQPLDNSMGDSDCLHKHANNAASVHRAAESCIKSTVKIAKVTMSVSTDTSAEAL
Protocol: as §2

[4] = Mouse hepatocytes metabolic stability; format: in vitro ADME
Protocol: as §1

human CB2R [5] = target: T1, human CB2R; assay: PathHunter β-Arrestin assay, beta-arrestin recruitment; format: cell-based
Protocol: The assay was performed using the PathHunter β-Arrestin human CB2 cell line (catalog no. 93-0706C2) and using the PathHunter® β-Arrestin Assay for GPCR Cell Lines (source: DiscoveRx, Fremont, CA, USA), according to the manufacturer's protocol (https://www.discoverx.com/tools-resources/document-resource-library/documents/user-manual-pathhunter-% CE % B2-arrestin-assay-for-gpcr-c). Briefly, cells were seeded at a density of 10,000 cells per well in a 96-well plate and incubated overnight (16-18 h) in a humidified atmosphere at 37° C. and 5% C02. Agonist prepared in PBS was added and the assay plate incubated for 3 h in a humidified atmosphere at 37° C. and 5% C02. Working detection solution was added and the plate was incubated for 1 h in the dark at room temperature. Chemiluminescence was measured on an CLARIOstar plate reader (BMG LABTECH Inc., Cary, NC, USA).

168 GPCRs = assay: Broad screening panel gpcrMAX; format: cell-based; settings: gpcrMAX at 70 nM against 168 GPCRs
Protocol: as §1

Male C57Bl6J mice [6] = assay: Amphetamine-induced hyperactivity test; format: in vivo, mouse; settings: compound i.p. 30 min before AMPH 2 mg/kg i.p., vs vehicle
Protocol: Male C57Bl6J mice were evaluated in an activity chamber apparatus for the amphetamine-induced hyperactivity test. […] To determine the effects of Compound 22 on amphetamine-induced hyperactivity, mice were placed in the activity chamber for a 30 min baseline period. At the end of that period, mice were removed from the chamber, dosed intraperitoneally with Compound 22 (1 mg/kg, 3 mg/kg, or 10 mg/kg) or vehicle and returned to the home cage. Thirty minutes after dosing, mice were dosed (ip) with amphetamine (AMPH, 2 mg/kg) and immediately placed into the activity chamber for a one-hour post-dose session.

Neurons/Microglia = assay: Cytotoxicity (Neurons/Microglia); format: cell-based
Protocol: as §1

GPR119 = target: T3, GPR119 (Homo sapiens, UniProt Q8TDV5); assay: Off-target activity GPR119 (agonist, antagonist, PAM modes); format: cell-based
T3 sequence (Q8TDV5 1-335): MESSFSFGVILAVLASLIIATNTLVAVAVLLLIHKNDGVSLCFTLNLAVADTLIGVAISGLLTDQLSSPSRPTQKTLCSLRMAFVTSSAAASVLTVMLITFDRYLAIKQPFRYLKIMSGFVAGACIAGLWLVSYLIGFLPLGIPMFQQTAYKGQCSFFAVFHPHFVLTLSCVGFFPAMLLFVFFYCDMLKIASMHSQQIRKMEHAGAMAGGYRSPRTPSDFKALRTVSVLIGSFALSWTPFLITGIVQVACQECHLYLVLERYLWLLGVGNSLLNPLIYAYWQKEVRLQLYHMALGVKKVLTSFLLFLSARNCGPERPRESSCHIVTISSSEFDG
Protocol: as §1

## CC(C)(CO)c1cc(NC(=O)N2CCCN2c2ccc(C(F)(F)F)cc2)no1 [Compound 22, N-(5-(1-hydroxy-2-methylpropan-2-yl)isoxazol-3-yl)-2-(4-(trifluoromethyl)phenyl)pyrazolidine-1-carboxamide]
[1]
  Extracellular DA release after AMPH dosing: reduced extracellular DA release after AMPH dosing
Male C57Bl6J mice [2]
  Distance moved / spontaneous locomotor activity: do not exhibit significantly different distance moved compared to the vehicle
Plasma protein binding
  fraction unbound: 0.0631
Human CB2R [3]; Activity in primary assay: CB2 EC50, Table 6, hCB2 cAMP, agonist mode, mean of n = 3-5 expts on ≥2 batches
  EC50: 0.067 µM
Human CB2R [3]; CB1/CB2 cAMP
  Selectivity (related family): 150 fold selectivity
Human CB2R [3]; CB2 cAMP/CB2 beta-arrestin
  Selectivity (pathway): 9 fold selectivity
Human CB2R [3]; cAMP assay, CP-55940 as full agonist control
  CB2 agonist character (in words): potent agonists of CB2
Human CB2R [3]; cAMP assays hCB1 vs hCB2
  Selectivity for CB2 over CB1 (in words): selective for CB2 over CB1
Brain protein binding
  fraction unbound: 0.0198
GPR55
  EC50: > 10 µM
  IC50: > 10 µM
other
  melting point: 142 to 146 °C
Human CB1R
  EC50: > 10 µM
[4]
  Mouse hepatocytes metabolic stability, clearance class: Medium clearance
[4]; read-out: Mouse hepatocytes metabolic stability t ½
  half-life: > 2 h
Human CB2R [5]
  EC50: 0.578 µM
Human CB2R [5]; hCB2, CP-55940 as control
  Activation of beta-arrestin pathway (in words): weak beta-arrestin activity
168 GPCRs
  Activity in broad screening panel: No significant off
Male C57Bl6J mice [6]
  Amphetamine-induced hyperactivity: reduces the hyperactivity induced by AMPH compared to vehicle controls, with significant reduction at 10 mg/kg; also recorded: able to reduce hyperactivity at doses as low as 0.1 mg/kg, i.p
Neurons/Microglia
  Cytotoxicity (Neurons/Microglia): not toxic
GPR119
  EC50: > 10 µM
  IC50: > 10 µM
